molecular target: DP IV (Homo sapiens, UniProt P27487); test: DP IV inhibition IC50, parallel-synthesis compounds tested directly following synthesis (without purification); format: biochemical; set-up: IC50 DP4; other: tested directly following parallel synthesis, without purification; compounds of formula (Ib) from parallel synthesis, tested directly following synthesis; settings: DP IV inhibition; compounds of formula (Ib) from parallel synthesis, tested directly following synthesis (without purification); read-out: IC50
Experimental: Compounds were immediately tested regarding their activity as DP IV inhibitors.
Substances are screened for inhibition of dipeptidyl peptidase (DP IV) by their ability to inhibit the hydrolysis of the DP IV specific substrate Glycyl-Prolyl-4-Nitroanilide (Gly-Pro-pNA). All compounds are diluted in DMSO and IC50 will be determined with 11 serial dilutions (1:2) starting with an final concentration of 100 μM. The final DMSO concentration in the assay is 5% (v/v). The method was automated using a Tecan Genesis Freedom liquid handler and a Genius Pro (Tecan) microplate reader.
DP IV from porcine kidney (pDP IV) or recombinant human DP IV (rhDP IV) is diluted in HEPES buffer to a final activity of approximately 40-50 μU*ml^−1. The DP IV is stored in a cooling rack (4° C.) on the liquid handler.
The assay may becarried out at room temperature using Freedom liquid handler connected with a Genios Pro microplate reader. Each sample is measured in duplicate. Each sample stock solution is prediluted with DMSO in a ratio of 1:5 in a polypropylen 96-well plate. From this predilution 10 serial (1:2) dilutions in DMSO are prepared. 13.5 μl of the 11 DMSO dilutions and DMSO alone are transferred to the measurement microplate (duplicates) and 86.5 μl water, 100 μl HEPES buffer and 50 μl substrate solution are added to each well. The enzymatic reaction is started by addition of 20 μl enzyme solution to each well, and then the microplate is immediately transferred to the microplate reader.
After short mixing (20 s) the release of 4-Nitroanilin (pNA) is monitored at 405 nm for 30 cycles (approx. 18 min).
Post assay calculations are done by the Magellan (Tecan) and Graphit Software. The linear slopes are calculated for each well and averaged for the duplicates. The residue activities are calculated in relation to a sample containing only solvent instead of inhibitor and expressed in %. Residue activities are plotted against the log of inhibitor concentrations and IC50 is calculated by an 4-parameter fitting ranging from 0 to 100%.

SMILES | IC50
NCc1c(-c2ccc(Cl)cc2Cl)ncn1CCc1ccc(Cl)cc1 [102b, C-[3-[2-(4-Chloro-phenyl)-ethyl]-5-(2,4-dichloro-phenyl)-3H-imidazol-4-yl]-methylamine] | 19 µM
C[C@H](N)c1c(-c2ccc(Cl)cc2Cl)ncn1CCc1c[nH]c2ccccc12 [103b, (S)-1-{5-(2,4-Dichloro-phenyl)-3-[2-(1H-indol-3-yl)-ethyl]-3H-imidazol-4-yl}-ethylamine] | 44.2 µM
NCCCc1c(-c2ccc(Cl)cc2Cl)ncn1CCc1c[nH]c2cc(Cl)ccc12 [105b, 3-[3-[2-(6-Chloro-1H-indol-3-yl)-ethyl]-5-(2,4-dichloro-phenyl)-3H-imidazol-4-yl]-propylamine] | 37.9 µM
CC(N)c1c(-c2ccc(Cl)cc2Cl)ncn1CCCCc1ccccc1 (stereo not drawn) [106b, 1-[5-(2,4-Dichloro-phenyl)-3-(4-phenyl-butyl)-3H-imidazol-4-yl]-ethylamine] | 28 µM
NCCCc1c(-c2ccc(Cl)cc2Cl)ncn1CCc1cccc(Cl)c1 [107b, 3-[3-[2-(3-Chloro-phenyl)-ethyl]-5-(2,4-dichloro-phenyl)-3H-imidazol-4-yl]-propylamine] | 42.4 µM
NCc1c(-c2ccc(Cl)cc2Cl)ncn1Cc1ccccc1C(F)(F)F [108b, C-[5-(2,4-Dichloro-phenyl)-3-(2-trifluoromethyl-benzyl)-3H-imidazol-4-yl]-methylamine] | 5.5 µM
CC(N)c1c(-c2ccc(Cl)cc2Cl)ncn1Cc1ccccc1 (stereo not drawn) [109b, 1-[3-Benzyl-5-(2,4-dichloro-phenyl)-3H-imidazol-4-yl]-ethylamine] | 7.3 µM
C[C@H](N)c1c(-c2ccc(Cl)cc2Cl)ncn1CCc1c[nH]c2cc(F)ccc12 [110b, (S)-1-{5-(2,4-Dichloro-phenyl)-3-[2-(6-fluoro-1H-indol-3-yl)-ethyl]-3H-imidazol-4-yl}-ethylamine] | 42.4 µM
C[C@H](N)c1c(-c2ccc(Cl)cc2Cl)ncn1CCNc1ccc([N+](=O)[O-])cn1 [111b, {2-[5-((S)-1-Amino-ethyl)-4-(2,4-dichloro-phenyl)-imidazol-1-yl]-ethyl}-(5-nitro-pyridin-2-yl)-amine] | 21.7 µM
NCc1c(-c2ccc(Cl)cc2Cl)ncn1CCc1ccc(O)cc1 [113b, 4-{2-[5-Aminomethyl-4-(2,4-dichloro-phenyl)-imidazol-1-yl]-ethyl}-phenol] | 21.7 µM
NCc1c(-c2ccc(Cl)cc2Cl)ncn1CCc1c[nH]c2cc(F)ccc12 [114b, C-{5-(2,4-Dichloro-phenyl)-3-[2-(6-fluoro-1H-indol-3-yl)-ethyl]-3H-imidazol-4-yl}-methylamine] | 3.7 µM

Now from value to molecule:

IC50 | SMILES
29.8 µM | CCCCCn1cnc(-c2ccc(Cl)cc2Cl)c1C(C)N (stereo not drawn) [115b, 1-[5-(2,4-Dichloro-phenyl)-3-pentyl-3H-imidazol-4-yl]-ethylamine]
23.5 µM | Cc1ccc(Cn2cnc(-c3ccc(Cl)cc3Cl)c2C(C)N)cc1 (stereo not drawn) [116b, 1-[5-(2,4-Dichloro-phenyl)-3-(4-methyl-benzyl)-3H-imidazol-4-yl]-ethylamine]
39.7 µM | Clc1ccc(-c2ncn(CCc3ccccc3Cl)c2C2CNC2)c(Cl)c1 [117b, 5-Azetidin-3-yl-1-[2-(2-chloro-phenyl)-ethyl]-4-(2,4-dichloro-phenyl)-1H-imidazole]
49.6 µM | CC(N)c1c(-c2ccc(Cl)cc2Cl)ncn1CCN1CCOCC1 (stereo not drawn) [118b, 1-[5-(2,4-Dichloro-phenyl)-3-(2-morpholin-4-yl-ethyl)-3H-imidazol-4-yl]-ethylamine]
2.8 µM | NCc1c(-c2ccc(Cl)cc2Cl)ncn1Cc1cc(F)ccc1F [119b, C-[5-(2,4-Dichloro-phenyl)-3-(2,5-difluoro-benzyl)-3H-imidazol-4-yl]-methylamine]
46 µM | CCn1cnc(-c2ccc(Cl)cc2Cl)c1CN [122b, C-[5-(2,4-Dichloro-phenyl)-3-ethyl-3H-imidazol-4-yl]-methylamine]
1.9 µM | NCc1c(-c2ccc(Cl)cc2Cl)ncn1Cc1c(F)cccc1Cl [123b, C-[3-(2-Chloro-6-fluoro-benzyl)-5-(2,4-dichloro-phenyl)-3H-imidazol-4-yl]-methylamine]
